The results in this text go back to the SangsterLogP compilation.

As usually defined, the logP is the decadic logarithm of the partition coefficient of the neutral form, usually between octanol and water. Read a high logP as higher lipophilicity.

In turn, `O=C(O)Cc1cc(O)ccc1O` showed a logP of 0.86.

`O=C(O)c1cc2ccccc2cc1O` gave a logP of 3.05.

In turn, `COc1cc(C(O)C(=O)O)ccc1O` (centres undefined) came in with a logP of 0.84.

As to `O=C(O)c1cc(O)cc(O)c1`, the log partition coefficient (logP) came to 0.94.

`O=C(O)Cc1ccccc1O` had a lipophilicity (logP) of 1.47.

`CC(C)CCOC(=O)c1ccccc1` had a log partition coefficient (logP) of 4.1.

Turning to `O=C(O)Cc1ccc(O)cc1`, the logP turned out to be 1.26.

Turning to `CCCCOC(=O)c1ccccc1`, the logP was determined as 3.68.

With `O=C(O)c1ccc(O)c(O)c1`, the logP was found to be 0.99.

Compound `O=C(O)Cc1ccc(O)c(O)c1` had a logP of 0.98.

Compound `O=C(O)Cn1ccc2cc(O)ccc21` came in with a log partition coefficient (logP) of 1.17.

Compound `COc1cccc(C(O)C(=O)O)c1` (centres undefined) returned a logP of 1.33.

In the case of `COc1cc(CC(=O)O)ccc1O`, the logP worked out at 1.18.

Consider `O=C(O)C1CCCCC1`, for which the log partition coefficient (logP) came to 1.96.

In the case of `CCC(=O)c1ccccc1`, the logP came to 2.3.

`O=C(O)c1cc(O)c(O)c(O)c1` had a log partition coefficient (logP) of 0.72.

In turn, `O=C(O)CCn1ccc2ccccc21` returned a logP of 2.2.

Turning to `COc1cccc(/C=C/C(=O)O)c1`, the logP was determined as 2.37.

For the compound `O=C(O)Cn1ccc2ccccc21`, the logP stood at 1.92.
